Test results as given in patent US20110152214A1, “SILK POLYMER-BASED ADENOSINE RELEASE: THERAPEUTIC POTENTIAL FOR EPILEPSY” (TRUSTEES OF TUFTS COLLEGE, priority 2008, published 2011).
“Also recorded” adds a separate entry of the source.

Tests used:
[1] = test system: rat kindling model; assay type: in vivo
Protocol: Anesthesia was induced with 3% isoflurane, 67% N2O, 30% O2 and maintained with 1.5% isoflurane, 68.5% N2O, 30% O2, while rats (N=22) were placed in a Kopf stereotactic frame. […]
Four days after surgery, the animals were stimulated unilaterally six times every second or third day with a Grass S-88 stimulator (1-ms square-wave pulses of 5V at 50-Hz frequency for 10 sec; 30 min-interval between stimulations). Behavioral seizures were scored according to the scale of Racine (3(2) Neurosurg. 234-52 (1978)). […] The electroencephalogram (EEG) was recorded for periods of 1 min before and 5 min after application of each stimulating pulse using a Nervus EEG monitoring system. […]
Seizure scores were determined after each stimulation according to the scale of Racine (1978). […]

[2] = test system: fully kindled rats; assay: Experiment 1: suppression of kindled seizures by polymer-based adenosine release; assay type: in vivo, rat
Description: Experiment 1: Four days after surgery, the animals were stimulated unilaterally six times every second or third day with a Grass S-88 stimulator (1-ms square-wave pulses of 5 V at 50-Hz frequency for 10 s, 30-min interval between stimulations; these stimulations corresponded to about 350 μA, whereas the afterdischarge thresholds before kindling were in the range of 115 μA). Behavioral seizures were scored according to the scale of Racine (Racine, 1978). The electroencephalogram (EEG) was recorded for periods of 1 min before and 5 min after application of each stimulating pulse using a Nervus EEG monitoring system. Stimulations on each day were discontinued whenever a stage 5 seizure on that day was reached. Eventually, all animals reacted with a stage 5 seizure at the first (and then only) daily stimulation. After three stage 5 seizures elicited by the first stimulation on three subsequent kindling-days animals were considered to be fully kindled (i.e. reproducibility of stage 5 seizure activity after stimulation). […] Only animals that fulfilled these stringent kindling criteria were used for the subsequent experiments. Polymers were implanted into these fully kindled animals. Implant recipients received one test-stimulation each on day 4, 6, 10, 14, 18, and 21 after polymer implantation and were then subjected to histological analysis. […]

[3] = test system: rat kindling model; details: Silver et al., 1991; cited from earlier work
[4] = test system: rat kindling model; assay: Experiment 2a: kindling on days 4, 6, 8, 11 after implantation, then DPCPX test; assay type: in vivo; details: 1 mg/kg, i.p., 30 min prior to stimulation, day twelve
Description: Experiment 2: Polymer implantation (see below) was combined with electrode implantation (see above) in the same surgery. Experiment 2a: Kindling was initiated four days after polymer implantation with the animals receiving 6 kindling stimulations (1-ms square-wave pulses of 5 V at 50-Hz frequency for 10 sec, 30-min interval between stimulations) each on day 4, 6, 8, and 11 after implantation; this amounted to a total of 24 stimulations. […] Twenty-four (24) hr after this drug test all animals were stimulated again once before being sacrificed for histological analysis. Experiment 2b (FIG. 3): Kindling was initiated four days after polymer implantation with the animals receiving six kindling stimulations each on days 4, 5, 6, 7, and 8, after implantation; this amounted to a total of 30 stimulations. In these incompletely kindled adenosine-implant recipients further stimulations were suspended until adenosine release from the polymers had expired (from day eighteen onwards). Kindling stimulations were resumed on days 18, 19, 20, 21, and 22 after implantation (6 stimulations/day; total of 30 additional stimulations). Afterwards the animals were sacrificed for histological analysis. […]

[5] = test system: fully kindled rats; details: Boison et al. 2002; Güttinger et al. 2005; Huber et al. 2001; cited from earlier work

Nc1ncnc2c1ncn2[C@@H]1O[C@H](CO)[C@@H](O)[C@H]1O [adenosine]
doses sufficient to suppress kindling ([1]; focal infrahippocampal release, from Table 3): around 400 ng adenosine/day | tolerability of high doses, gross behavioral changes ([1]; rat, in vivo): well tolerated

OC[C@H]1O[C@@H](n2cnc3c(NC4CCCC4)nc(Cl)nc32)[C@H](O)[C@@H]1O [CCPA, 2-chloro-N(6)-cyclopentyladenosine]
seizure response to test stimulation ([2]; 3 mg/kg i.p., 30 min prior to test stimulation, before polymer implantation): complete seizure suppression

NC(=O)N1c2ccccc2C=Cc2ccccc21 [carbamazepine]
effect on kindling development / antiepileptogenesis [3]: did not affect kindling development during the drug-phase

CCCn1c(=O)c2[nH]c(C3CCCC3)nc2n(CCC)c1=O [DPCPX, 8-cyclopentyl-1,3-dipropylxanthine]
effect of DPCPX on seizure score in adenosine-releasing implant recipients [4]: failed to elicit control group-like seizures; also recorded: did not increase the seizure score; also recorded: failed to increase seizure scores | seizures elicited by DPCPX paired with kindling stimulations [5]: readily elicits stage 5 seizures | seizure stage elicited in an ADO-polymer treated rat after DPCPX ([2]; 1 mg/kg, i.p., 30 min after injection, day three): 5
